The values below come from article PMC10763615, “Identification and engineering of potent cyclic peptides with selective or promiscuous binding through biochemical profiling and bioinformatic data analysis” (RSC Chemical Biology, 2023).

Common to all, as to format: binding
For one experiment, the target named is T1, FGF-R3C ECD (Homo sapiens, UniProt P22607).
T1 sequence (P22607 23-375 limits assumed): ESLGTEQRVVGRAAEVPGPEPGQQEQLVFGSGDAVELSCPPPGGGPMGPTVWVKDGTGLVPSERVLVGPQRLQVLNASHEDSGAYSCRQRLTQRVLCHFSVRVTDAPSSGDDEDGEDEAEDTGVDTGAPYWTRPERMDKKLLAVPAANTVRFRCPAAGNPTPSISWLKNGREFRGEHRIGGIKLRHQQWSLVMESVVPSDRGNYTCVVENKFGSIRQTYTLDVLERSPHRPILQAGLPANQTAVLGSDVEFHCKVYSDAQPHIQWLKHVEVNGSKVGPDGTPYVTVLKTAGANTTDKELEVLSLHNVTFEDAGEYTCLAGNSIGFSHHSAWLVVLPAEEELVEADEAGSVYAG
The experiment in a line: biochemical. More on the design: DNA constructs for the extracellular domain (ECD) of human FGF-; HPC4 (C); made in house; host or cells: HEK 293-6E. The procedure:
(§1) KD affinity binding measurements were obtained by biolayer interferometry (BLI) instruments (Fortebio Octet HTX, or Sartorius Octet RH16 using either 8 or 16 channel mode.
(§2) For single concentration binding experiments, 50 μM peptide stocks in folding buffer were diluted 1:50 in mRNA display selection buffer (PBS pH7.4 supplemented with 0.05% Tween-20 and 0.01% BSA) in either a 96 well black plate, or a 384 well tilted bottom microplate (ForteBio). Biotinylated FGF-R protein was loaded onto Streptavidin-functionalised biosensors (ForteBio) and immersed into ~1 μM peptide to obtain association kinetics curves. Dissociation kinetics curves were obtained by subsequent immersion of ligand-associated loaded sensors into a 1:50 dilution of folding buffer in mRNA display selection buffer. Fitted KD data was adjusted for concentration as determined by UPLC-CAD.
(§3) For accurate multi-concentration KD determination, dilution series of each peptide were made, and association and dissociation kinetics curves were obtained as above for each concentration to fit a multi-point KD binding model. Data collection and analysis was performed using the Octet Instrument Control […]
(§4) concentration assay kinetics curves shown in supplementary Figure S 19-24.

For another experiment, the target named is T2, FGF-R1C ECD (Homo sapiens, UniProt P11362).
T2 sequence (P11362 22-376 limits assumed): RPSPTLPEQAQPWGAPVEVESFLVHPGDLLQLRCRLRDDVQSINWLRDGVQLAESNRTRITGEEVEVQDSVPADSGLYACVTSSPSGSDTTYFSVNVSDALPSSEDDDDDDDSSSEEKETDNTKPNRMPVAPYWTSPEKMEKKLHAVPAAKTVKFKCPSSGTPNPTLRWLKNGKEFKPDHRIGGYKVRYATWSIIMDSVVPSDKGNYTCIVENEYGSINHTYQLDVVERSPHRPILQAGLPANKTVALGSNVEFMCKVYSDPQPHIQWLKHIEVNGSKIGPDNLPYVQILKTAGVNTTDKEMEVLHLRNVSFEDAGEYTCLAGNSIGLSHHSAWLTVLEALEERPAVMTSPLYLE
The experiment can be described thus: biochemical. Also noted: DNA constructs for the extracellular domain (ECD) of human FGF-; HPC4 (C); made in house; host or cells: HEK 293-6E. On the procedure: as §1, §2, §3, §4

In a further experiment the target is T3, FGF-R4 ECD (Homo sapiens, UniProt P22455).
T3 construct: DNA constructs for the extracellular domain (ECD) of human FGF-; HPC4 (C); made in house; host or cells: HEK 293-6E
T3 sequence (P22455 22-369 limits assumed): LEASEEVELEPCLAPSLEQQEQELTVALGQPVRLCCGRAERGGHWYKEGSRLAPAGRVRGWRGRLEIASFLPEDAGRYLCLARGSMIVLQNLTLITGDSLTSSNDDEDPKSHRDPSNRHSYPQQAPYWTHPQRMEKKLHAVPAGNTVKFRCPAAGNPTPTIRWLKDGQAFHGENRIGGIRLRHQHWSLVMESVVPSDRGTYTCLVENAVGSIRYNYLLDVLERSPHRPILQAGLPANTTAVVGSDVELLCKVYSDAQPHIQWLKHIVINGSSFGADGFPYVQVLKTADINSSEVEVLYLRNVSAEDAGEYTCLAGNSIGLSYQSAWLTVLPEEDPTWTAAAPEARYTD
The experiment in a line: single concentration BLI of crude peptides. The conditions noted are these: crude T18 selection 1 (1:1:1) peptides, single concentration BLI (Table S4); read-out: KD (4). On the procedure: as §1
as §2, with “UPLC-CAD. […]” for “UPLC-CAD.”

Positions of bridges follow the written chain, without caps; N, C: chain ends. Residues, ends and D or L forms follow the SMILES beside them. Some results are limits rather than exact numbers.

Broadly, the Kd is the free concentration of one partner at which half of the binding sites on the other are occupied at equilibrium, for simple one-to-one binding.

As to `CSCC[C@H](NC(C)=O)C(=O)N[C@H]1CSSC[C@@H](C(=O)NCC(=O)N[C@@H](CO)C(=O)NCC(=O)N[C@@H](CO)C(=O)N[C@@H](CCC(=O)O)C(=O)N[C@@H](CCC(=O)O)C(=O)NCC(=O)N[C@@H](CO)C(=O)NCC(=O)N[C@@H](CO)C(=O)N[C@@H](CC(=O)O)C(=O)N[C@@H](Cc2ccc(O)cc2)C(=O)N[C@@H](CCCCN)C(=O)N[C@@H](CC(=O)O)C(=O)N[C@@H](CC(=O)O)C(=O)N[C@@H](CC(=O)O)C(=O)N[C@@H](CC(=O)O)C(=O)N[C@@H](CCCCN)C(N)=O)NC(=O)[C@H](Cc2ccccc2)NC(=O)[C@H](CCCCN)NC(=O)CNC(=O)[C@H](CCCCN)NC(=O)[C@H](Cc2c[nH]c3ccccc23)NC(=O)[C@H](CC(C)C)NC(=O)[C@H](CC(C)C)NC(=O)[C@H](Cc2ccccc2)NC(=O)[C@H](C)NC(=O)[C@H](CCCCN)NC(=O)[C@H](C)NC1=O` (Ac-MCAKAFLLWKGKFCGSGSEEGSGSDYKDDDDK-NH2; disulfide 2-14), the Kd on FGF-R3C ECD, at FGF-R1C ECD and on FGF-R4 ECD was above 10 µM each time.
As to `CSCC[C@H](NC(C)=O)C(=O)N[C@H]1CSSC[C@@H](C(=O)NCC(=O)N[C@@H](CO)C(=O)NCC(=O)N[C@@H](CO)C(=O)N[C@@H](CC(=O)O)C(=O)N[C@@H](Cc2ccc(O)cc2)C(=O)N[C@@H](CCCCN)C(=O)N[C@@H](CC(=O)O)C(=O)N[C@@H](CC(=O)O)C(=O)N[C@@H](CC(=O)O)C(=O)N[C@@H](CC(=O)O)C(=O)N[C@@H](CCCCN)C(N)=O)NC(=O)[C@H](Cc2c[nH]c3ccccc23)NC(=O)[C@H](CC(C)C)NC(=O)[C@H](CC(C)C)NC(=O)[C@H](Cc2ccc(O)cc2)NC(=O)[C@H](Cc2ccc(O)cc2)NC(=O)[C@H](Cc2ccccc2)NC(=O)[C@H](CC(C)C)NC(=O)[C@H](Cc2c[nH]cn2)NC(=O)[C@H](CCC(=O)O)NC(=O)[C@H](CCCCN)NC(=O)[C@H](C)NC1=O` (Ac-MCAKEHLFYYLLWCGSGSDYKDDDDK-NH2; disulfide 2-14), the results for the Kd on FGF-R3C ECD, on FGF-R1C ECD and on FGF-R4 ECD were above 10 µM, above 10 µM and 0.041 µM, respectively.
For `CC[C@H](C)[C@@H]1NC(=O)[C@H](CC(C)C)NC(=O)[C@H](Cc2ccccc2)NC(=O)[C@H](Cc2ccc(O)cc2)NC(=O)[C@H](CCCCN)NC(=O)[C@H](C)NC(=O)[C@@H](NC(=O)[C@H](CCSC)NC(C)=O)CSSC[C@@H](C(=O)NCC(=O)N[C@@H](CO)C(=O)NCC(=O)N[C@@H](CO)C(=O)N[C@@H](CC(=O)O)C(=O)N[C@@H](Cc2ccc(O)cc2)C(=O)N[C@@H](CCCCN)C(=O)N[C@@H](CC(=O)O)C(=O)N[C@@H](CC(=O)O)C(=O)N[C@@H](CC(=O)O)C(=O)N[C@@H](CC(=O)O)C(=O)N[C@@H](CCCCN)C(N)=O)NC(=O)[C@H](CCC(N)=O)NC(=O)[C@H](CCC(N)=O)NC(=O)[C@H](Cc2ccc(O)cc2)NC(=O)[C@H](C)NC(=O)[C@H](CCCNC(=N)N)NC(=O)[C@H](Cc2c[nH]c3ccccc23)NC1=O` (Ac-MCAKYFLIWRAYQQCGSGSDYKDDDDK-NH2; disulfide 2-15), the Kd at FGF-R3C ECD was above 10 µM; on FGF-R1C ECD it was above 10 µM; on FGF-R4 ECD, 0.01 µM.
For `CSCC[C@H](NC(C)=O)C(=O)N[C@H]1CSSC[C@@H](C(=O)NCC(=O)N[C@@H](CO)C(=O)NCC(=O)N[C@@H](CO)C(=O)N[C@@H](CC(=O)O)C(=O)N[C@@H](Cc2ccc(O)cc2)C(=O)N[C@@H](CCCCN)C(=O)N[C@@H](CC(=O)O)C(=O)N[C@@H](CC(=O)O)C(=O)N[C@@H](CC(=O)O)C(=O)N[C@@H](CC(=O)O)C(=O)N[C@@H](CCCCN)C(N)=O)NC(=O)[C@H](Cc2c[nH]cn2)NC(=O)[C@H](CC(C)C)NC(=O)[C@H](C(C)C)NC(=O)[C@H](CCC(N)=O)NC(=O)[C@H](Cc2c[nH]c3ccccc23)NC(=O)[C@H](Cc2ccc(O)cc2)NC(=O)[C@H](CCCNC(=N)N)NC(=O)[C@H](C(C)C)NC(=O)[C@H](Cc2ccc(O)cc2)NC(=O)[C@H](Cc2ccc(O)cc2)NC(=O)[C@H](C)NC(=O)[C@H](CC(=O)O)NC1=O` (Ac-MCDAYYVRYWQVLHCGSGSDYKDDDDK-NH2; disulfide 2-15), the Kd at FGF-R3C ECD is above 10 µM; on FGF-R1C ECD it was above 10 µM; on FGF-R4 ECD it was 0.036 µM.
For the compound `CC[C@H](C)[C@@H]1NC(=O)[C@H](Cc2ccc(O)cc2)NC(=O)[C@H](Cc2c[nH]c3ccccc23)NC(=O)[C@H](CCCCN)NC(=O)[C@H](C(C)C)NC(=O)[C@H](Cc2ccccc2)NC(=O)[C@H](CCCCN)NC(=O)[C@H](CC(=O)O)NC(=O)[C@@H](NC(=O)[C@H](CCSC)NC(C)=O)CSSC[C@@H](C(=O)NCC(=O)N[C@@H](CO)C(=O)NCC(=O)N[C@@H](CO)C(=O)N[C@@H](CCC(=O)O)C(=O)N[C@@H](CCC(=O)O)C(=O)NCC(=O)N[C@@H](CO)C(=O)NCC(=O)N[C@@H](CO)C(=O)N[C@@H](CC(=O)O)C(=O)N[C@@H](Cc2ccc(O)cc2)C(=O)N[C@@H](CCCCN)C(=O)N[C@@H](CC(=O)O)C(=O)N[C@@H](CC(=O)O)C(=O)N[C@@H](CC(=O)O)C(=O)N[C@@H](CC(=O)O)C(=O)N[C@@H](CCCCN)C(N)=O)NC(=O)[C@H](Cc2c[nH]cn2)NC(=O)[C@H](CCCNC(=N)N)NC(=O)[C@H](Cc2ccccc2)NC(=O)[C@H](C(C)C)NC1=O` (Ac-MCDKFVKWYIVFRHCGSGSEEGSGSDYKDDDDK-NH2; disulfide 2-15), the results for the Kd on FGF-R3C ECD, on FGF-R1C ECD and on FGF-R4 ECD were above 10 µM, above 10 µM and 0.001 µM, respectively.
On to `CC[C@H](C)[C@@H]1NC(=O)[C@H](CCCCN)NC(=O)[C@H](Cc2ccc(O)cc2)NC(=O)[C@H](Cc2c[nH]c3ccccc23)NC(=O)[C@H](CC(C)C)NC(=O)[C@H](C(C)C)NC(=O)[C@H]([C@@H](C)O)NC(=O)[C@H](Cc2ccc(O)cc2)NC(=O)[C@H](CC(C)C)NC(=O)[C@H](CC(=O)O)NC(=O)[C@@H](NC(=O)[C@H](CCSC)NC(C)=O)CSSC[C@@H](C(=O)NCC(=O)N[C@@H](CO)C(=O)NCC(=O)N[C@@H](CO)C(=O)N[C@@H](CC(=O)O)C(=O)N[C@@H](Cc2ccc(O)cc2)C(=O)N[C@@H](CCCCN)C(=O)N[C@@H](CC(=O)O)C(=O)N[C@@H](CC(=O)O)C(=O)N[C@@H](CC(=O)O)C(=O)N[C@@H](CC(=O)O)C(=O)N[C@@H](CCCCN)C(N)=O)NC(=O)[C@H](CCC(=O)O)NC(=O)[C@H](CCCCN)NC(=O)[C@H](CCC(N)=O)NC1=O` (Ac-MCDLYTVLWYKIQKECGSGSDYKDDDDK-NH2; disulfide 2-16), for which the Kd at FGF-R3C ECD was above 10 µM; at FGF-R1C ECD, 0.021 µM; on FGF-R4 ECD, 0.019 µM.
